This note sets out measurements from article PMC8151276, “An Integrated Approach toward NanoBRET Tracers for Analysis of GPCR Ligand Engagement” (Molecules, 2021).

This assay has as its target T1, NMUR1 (Homo sapiens, UniProt Q9HB89).
T1 construct: purchased Promega (in-house HiBiT-GPCR construct library, NanoBRET)
T1 sequence (Q9HB89 1-426): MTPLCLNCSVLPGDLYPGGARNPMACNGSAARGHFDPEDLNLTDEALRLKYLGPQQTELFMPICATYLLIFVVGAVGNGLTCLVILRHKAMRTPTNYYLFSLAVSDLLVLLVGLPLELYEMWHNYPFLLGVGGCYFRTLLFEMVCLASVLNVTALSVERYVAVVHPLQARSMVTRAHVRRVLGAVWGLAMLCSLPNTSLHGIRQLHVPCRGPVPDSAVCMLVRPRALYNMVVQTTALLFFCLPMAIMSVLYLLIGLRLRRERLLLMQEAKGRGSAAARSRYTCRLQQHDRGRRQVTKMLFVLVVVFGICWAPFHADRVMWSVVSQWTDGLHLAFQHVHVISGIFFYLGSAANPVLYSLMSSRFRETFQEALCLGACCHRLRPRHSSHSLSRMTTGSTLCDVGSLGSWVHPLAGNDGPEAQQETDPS
In words: NanoBRET screen HiBiT-NMUR1 in HEK293. It counts as binding. How it is done: Each tracer candidate was screened across the entire library of HiBiT-GPCR constructs using NanoBRET as the detection modality. As depicted in Figure 4A, the specificity of interactions was evaluated through decrease in BRET due to competitive displacement of a bound tracer by excess parental compound. Each tracer was analyzed for binding to each HiBiT-GPCR fusion in the absence and in the presence of competing parental compound. Briefly, HEK293 cells were transfected with HiBiT-GPCR constructs diluted into promoterless DNA to reduce expression and maximize translocation to the cell surface. Each tracer candidate was then screened at concentrations of 1 μM and 0.1 μM across cells expressing these fusions. Cells were treated for 1.5 h with tracer either alone or in the presence of 20 μM competing parental compound (i.e., control). BRET was measured upon addition of purified LgBiT and subsequent complementation with HiBiT genetically fused to a GPCR. The specificity of interactions was assessed through a decrease in BRET signal due to competitive displacement of the bound tracer. To further gauge the robustness of these interactions, the fold response over the control (i.e., BRETtracer/BRETcontrol) was calculated. We chose a 1.5-fold response, which translates to ≥7-fold signal over noise as the minimal threshold required to score an interaction as positive. […]. Below we highlight the screening results obtained for our exemplary fluorescent tracers based on Clozapine, Amitriptyline and AZD1283.
HiBiT-GPCR DNA constructs were diluted in 10 mM Tris pH 8 to a final concentration of 0.01 μg/μL, arrayed in 96-well plates and stored at −20 °C. For transfection, HEK293 cells were suspended in Opti-MEM (without phenol red) supplemented with 2% fetal bovine serum (Seradigm) and 100 units/mL penicillin–streptomycin (Gibco) at a final concentration of 220,000 cells/mL and dispensed into white 96-well plates at 90 μL/well. Subsequent transfections and screens were carried using an Agilent Bravo Automated Liquid Handling Platform. First, the 96-well HiBiT DNA arrays were diluted 25-fold in Opti-MEM (without serum or phenol red) to a final concentration of 0.0004 μg/μL and 20 μL of the diluted DNAs were transferred into new 96-well plates. Next, promoterless carrier DNA (1 μg/μL) was diluted 25-fold (0.04 μg/μL) and then dispensed into the diluted arrays at 20 μL/well. Following brief mixing, Viafect transfection reagent (Promega) diluted 16-fold into Opti-MEM was dispensed into the plates at 40 μL/well. After mixing by pipetting, plates were incubated for 10 min on the pipetting station deck. The DNA-transfection reagent complexes were then added to plates containing cells. To facilitate the screen, 10 μL of DNA-transfection reagent complexes were added in duplicates to the top 4 and bottom 4 rows, resulting in two identical 48-well arrays per plate. Plates with transfected cells were incubated for 18–20 h at 37 °C/5% CO2. A screen of each tracer across the entire library using two different concentrations requires duplicate plates of transfected cells. Depending on the number of tracers being screened, transfections can be scaled up using the same ratios. The next day, for each tracer, four 20× screening solutions in tracer dilution buffer (Promega) were prepared: two duplicates at final concentration of 20 μM and two duplicates at a final concentration of 2 μM. A competing unmodified compound was added to one of each duplicate at a final concentration of 400 μM. The four resulting solutions were diluted 4-fold in Opti-MEM without serum or phenol red to generate 5× solutions (5 µM and 0.5 µM tracer +/− 100 μM competing compound). To screen the library, a BioTek MultiFlo FX liquid dispenser was used to dispense 22.5 µL of tracer solution to the top 4 rows and 22.5 µL tracer + competing compound solution to the 4 bottom rows. Plates were briefly mixed on an orbital shaker and incubated for 1.5 h at room temperature. […]

Take `O=C(CCOCCOCCOCCOCCNC(=O)CCc1ccc2n1[B-](F)(F)[N+]1=C(c3ccc[nH]3)C=CC1=C2)NCCCN1CCN(C2=Nc3ccccc3Oc3ccc(Cl)cc32)CC1` [Loxapine-a-2-NB590]: the “NanoBRET Fold Response” value was 1.02 (NMUR1, tracer 0.1μM) and 1.21 (NMUR1, tracer 1μM).
On the same counts, the results for `CCCn1c(=O)c2[nH]c(-c3ccc(OCC(=O)NCCNC(=O)CCOCCNC(=O)c4ccc(CNC(=O)CCc5ccc6n5[B-](F)(F)[N+]5=C(c7ccc[nH]7)C=CC5=C6)cc4)cc3)nc2n(CCC)c1=O` [XAC-3-NB590] are 0.91 and 1.00.
Take `CN(C)CCC=C1c2ccccc2CCc2ccc(C(=O)NCCNC(=O)CCOCCOCCOCCOCCNC(=O)CCc3ccc4n3[B-](F)(F)[N+]3=C(c5ccc[nH]5)C=CC3=C4)cc21` [Amitriptyline-a-2-NB590]: the “NanoBRET Fold Response” value reads like this: (tracer at 0.1μM) 1.01; (tracer at 1μM) 0.99.
Turning to `COc1ccccc1N1CCN(CCCCN2C(=O)c3ccc(CNC(=O)CCOCCOCCOCCOCCNC(=O)CCc4ccc5n4[B-](F)(F)[N+]4=C(c6ccc[nH]6)C=CC4=C5)cc3C2=O)CC1` [NAN-190-2-NB590], the “NanoBRET Fold Response” value (NMUR1, tracer 0.1μM) is 0.99 and the “NanoBRET Fold Response” value (NMUR1, tracer 1μM) was 0.98.
`O=C(CCc1ccc2n1[B-](F)(F)[N+]1=C(c3ccc[nH]3)C=CC1=C2)NCc1ccc(C(=O)NCCOCCOCCNCC(O)COc2cccc3ccccc23)cc1` (stereo not shown) [Propranolol-3-NB590]: the “NanoBRET Fold Response” value (NMUR1, 0.1μM) was 1.01 and the “NanoBRET Fold Response” value (NMUR1, 1μM) was 1.00.
As to `COc1ccccc1N1CCN(CCCCN2C(=O)c3ccc(CNC(=O)CCOCCNC(=O)c4ccc(CNC(=O)CCc5ccc6n5[B-](F)(F)[N+]5=C(c7ccc[nH]7)C=CC5=C6)cc4)cc3C2=O)CC1` [NAN-190-3-NB590], the “NanoBRET Fold Response” value is recorded as 1.03 (NMUR1, tracer 0.1μM) and 0.96 (NMUR1, tracer 1μM).
For `O=C(CCc1ccc2n1[B-](F)(F)[N+]1=C(c3ccc[nH]3)C=CC1=C2)NCc1ccc(C(=O)NCCOCCC(=O)N[C@@H]2CC[C@@]3(O)[C@H]4Cc5ccc(O)c6c5[C@@]3(CCN4CC3CC3)[C@H]2O6)cc1` [Naltrexone-3-NB590], in that order: 0.85 and 1.07.
As for `CCOC(=O)c1cc(C#N)c(N2CCC(C(=O)NS(=O)(=O)Cc3ccccc3/C=C/C(=O)NCCNC(=O)CCc3ccc4n3[B-](F)(F)[N+]3=C(c5ccc[nH]5)C=CC3=C4)CC2)nc1C` [AZD1283-1-NB590], the “NanoBRET Fold Response” value (NMUR1, 0.1μM) was determined as 1.05 and the “NanoBRET Fold Response” value (NMUR1, 1μM) was determined as 1.04.
For the compound `COc1ccc2[nH]c(-c3ccc(CNC(=O)CCOCCOCCOCCOCCNC(=O)CCc4ccc5n4[B-](F)(F)[N+]4=C(c6ccc[nH]6)C=CC4=C5)cc3)c(CCNC(C)=O)c2n1` [AzomelatoninICO9-2-NB590], the “NanoBRET Fold Response” value came out at 0.77 (0.1μM tracer) and 0.91 (1μM tracer).
On to `CC(C)N(CC[C@H](c1ccccc1)c1cc(CCNC(=O)CCOCCOCCOCCOCCNC(=O)CCc2ccc3n2[B-](F)(F)[N+]2=C(c4ccc[nH]4)C=CC2=C3)ccc1O)C(C)C` [Tolterodine-2-NB590], for which the “NanoBRET Fold Response” value is 0.94 (NMUR1, tracer 0.1μM) and 1.12 (NMUR1, tracer 1μM).
For `CN1CCN(C2=Nc3cc(Cl)ccc3N(CC(=O)NCCOCCOCCOCCOCCNC(=O)CCc3ccc4n3[B-](F)(F)[N+]3=C(c5ccc[nH]5)C=CC3=C4)c3ccccc32)CC1` [Clozapine-c-2-NB590], the “NanoBRET Fold Response” value runs as follows: (NMUR1, 0.1μM tracer) 1.01; (NMUR1, 1μM tracer) 1.00.
`N#CN=C(NCCCOc1cccc(CN2CCCCC2)c1)NCCNC(=O)CCOCCOCCOCCOCCNC(=O)CCc1ccc2n1[B-](F)(F)[N+]1=C(c3ccc[nH]3)C=CC1=C2` [Aminopotentidine-2-NB590]: the “NanoBRET Fold Response” value reads like this: (NMUR1, tracer 0.1μM) 1.05; (NMUR1, tracer 1μM) 0.98.
Consider `COc1ccc2c(n1)c(CCNC(C)=O)cn2CCNC(=O)CCc1ccc2n1[B-](F)(F)[N+]1=C(c3ccc[nH]3)C=CC1=C2` [Azamelatonin-1-NB590], for which the “NanoBRET Fold Response” value runs as follows: (0.1μM tracer) 0.78; (1μM tracer) 0.97.
Regarding `CC(C)N(CC[C@H](c1ccccc1)c1cc(CCNC(=O)c2ccc(CNC(=O)CCc3ccc4n3[B-](F)(F)[N+]3=C(c5ccc[nH]5)C=CC3=C4)cc2)ccc1O)C(C)C` [Tolterodine-BZ-NB590], the “NanoBRET Fold Response” value is, setting by setting: (NMUR1, tracer 0.1μM) 0.78; (NMUR1, tracer 1μM) 1.02.
As to `O=C(CCc1ccc2n1[B-](F)(F)[N+]1=C(c3ccc[nH]3)C=CC1=C2)NCCOCCOCCNC(=O)OCCOCCN1CCN(C2=Nc3ccccc3Sc3ccccc32)CC1` [Quetiapine-a-2-NB590], the “NanoBRET Fold Response” value (NMUR1, tracer 0.1μM) came out at 1.01 and the “NanoBRET Fold Response” value (NMUR1, tracer 1μM) worked out at 0.81.
On the same counts, the results for `Cc1cc2c(s1)Nc1ccccc1N=C2N1CCN(CCCNC(=O)CCOCCOCCOCCOCCNC(=O)CCc2ccc3n2[B-](F)(F)[N+]2=C(c4ccc[nH]4)C=CC2=C3)CC1` [Olanzapine-a-2-NB590] are 0.98 and 1.00.
Take `CN(C)CCC=C1c2ccccc2CCc2ccc(C(=O)NCCNC(=O)CCOCCOCCOCCOCCNC(=O)CCc3ccc4n3[B-](F)(F)[N+]3=C(c5ccc[nH]5)C=CC3=C4)cc21` [Amitriptyline-b-2-NB590]: the “NanoBRET Fold Response” value is 1.14 (tracer at 0.1μM, listed as amitriptyline-b-2-NB590) and 1.10 (tracer at 1μM, listed as amitriptyline-b-2-NB590).
As to `O=C(CCOCCOCCOCCOCCNC(=O)CCc1ccc2n1[B-](F)(F)[N+]1=C(c3ccc[nH]3)C=CC1=C2)NCCCN1CCN(C2=Nc3cc(Cl)ccc3Nc3ccccc32)CC1` [Clozapine-a-2-NB590], the “NanoBRET Fold Response” value is, setting by setting: (NMUR1, 0.1μM tracer) 1.14; (NMUR1, 1μM tracer) 1.16.
On the same counts, the results for `CN1CCN(C2=Nc3cc(Cl)ccc3Nc3ccc(CNC(=O)CCOCCOCCOCCOCCNC(=O)CCc4ccc5n4[B-](F)(F)[N+]4=C(c6ccc[nH]6)C=CC4=C5)cc32)CC1` [Clozapine-b-2-NB590] are 0.98 and 0.94.
In the case of `Cc1nc2n(c(=O)c1CCN1CCC(c3noc4cc(F)ccc34)CC1)CCCC2OC(=O)NCCOCCOCCOCCOCCNC(=O)CCc1ccc2n1[B-](F)(F)[N+]1=C(c3ccc[nH]3)C=CC1=C2` (stereo not shown) [Risperidone-2-NB590], the “NanoBRET Fold Response” value reads like this: (NMUR1, tracer 0.1μM) 1.04; (NMUR1, tracer 1μM) 0.97.
